Test results reported in patent publication US7713994B2 (Wyeth LLC, priority 2005, dated 2010).

Experiments:
cyclin D1/cdk 4 enzyme = target: T1, cyclin D1/cdk 4 enzyme (Homo sapiens, UniProt P11802); experiment: CDK4 ELISA kinase assay (phospho-Rb ser 795 detection); assay type: biochemical; conditions: In Vitro Enzyme Assays, 200 μM ATP, read-out: CDK4 IC50
T1 construct: made in house; host or cells: Sf9 insect cells, recombinant baculovirus
Outline: (§1)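 Screening was done at 10 ug/ml compound. Each partially purified cyclin/CDK complex, produced in baculovirus-infected Sf9 cells, phosphorylated a coated GST-Rb C-terminal fragment with 200 μM ATP, and Ser795 phosphorylation was quantified by HRP-ELISA at 450 nm.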

cyclin E/CDK2 enzyme = target: T2, cyclin E/CDK2 enzyme (Homo sapiens, UniProt P24941); experiment: CDK2 ELISA kinase assay (phospho-Rb ser 795 detection); assay type: biochemical; conditions: In Vitro Enzyme Assays, read-out: CDK2 IC50
T2 construct: made in house; host or cells: Sf9 insect cells, recombinant baculovirus
Outline: as §1

cyclin B/CDK1 enzyme = target: T3, cyclin B/CDK1 enzyme (Homo sapiens, UniProt P06493); experiment: CDK1 ELISA kinase assay (phospho-Rb ser 795 detection); assay type: biochemical; conditions: In Vitro Enzyme Assays, read-out: CDK1 IC50
T3 construct: purchased New England BioLabs; host or cells: Sf9 insect cells, recombinant baculovirus
Outline: as §1

BT474 = experiment: Cytotoxicity assay (SRB), BT474; assay type: cell-based; conditions: Homo sapiens, BT-474, 144 h, BT474 cells, SRB, 6 days; read-out: In Vitro Cellular Activity IC50 BT474
Outline: (§2)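 BT474 (12000 cells/well) was treated for 6 days, whereas HCT-116 (4000), LoVo (6000) and MCF-7 (6000) were treated for 3 days, all in RPMI 1640 containing 5% FBS. Surviving-cell percentage came from SRB dye binding measured at 540 nm.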

HCT-116 = experiment: Cytotoxicity assay (SRB), HCT-116; assay type: cell-based; conditions: Homo sapiens, HCT-116, 72 h, HCT116 cells, SRB, three days; read-out: In Vitro Cellular Activity IC50 HCT116
Outline: as §2

LoVo = experiment: Cytotoxicity assay (SRB), LoVo; assay type: cell-based; conditions: Homo sapiens, LoVo, 72 h, LoVo cells, SRB, three days; read-out: In Vitro Cellular Activity IC50 LOVO
Outline: as §2

MCF-7 = experiment: Cytotoxicity assay (SRB), MCF-7; assay type: cell-based; conditions: Homo sapiens, MCF7, 72 h, MCF-7 cells, SRB, three days; read-out: In Vitro Cellular Activity IC50 MCF-7
Outline: as §2

T3 sequence (P06493 whole entry): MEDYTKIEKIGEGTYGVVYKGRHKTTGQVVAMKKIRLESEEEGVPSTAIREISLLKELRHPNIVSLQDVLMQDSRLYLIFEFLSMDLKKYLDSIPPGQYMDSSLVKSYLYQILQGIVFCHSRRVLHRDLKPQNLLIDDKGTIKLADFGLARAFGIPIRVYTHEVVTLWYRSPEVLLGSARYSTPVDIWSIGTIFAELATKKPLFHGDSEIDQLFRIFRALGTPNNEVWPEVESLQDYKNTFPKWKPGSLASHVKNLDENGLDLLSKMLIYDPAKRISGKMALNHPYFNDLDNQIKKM
T3 sequence (P14635 whole entry partner): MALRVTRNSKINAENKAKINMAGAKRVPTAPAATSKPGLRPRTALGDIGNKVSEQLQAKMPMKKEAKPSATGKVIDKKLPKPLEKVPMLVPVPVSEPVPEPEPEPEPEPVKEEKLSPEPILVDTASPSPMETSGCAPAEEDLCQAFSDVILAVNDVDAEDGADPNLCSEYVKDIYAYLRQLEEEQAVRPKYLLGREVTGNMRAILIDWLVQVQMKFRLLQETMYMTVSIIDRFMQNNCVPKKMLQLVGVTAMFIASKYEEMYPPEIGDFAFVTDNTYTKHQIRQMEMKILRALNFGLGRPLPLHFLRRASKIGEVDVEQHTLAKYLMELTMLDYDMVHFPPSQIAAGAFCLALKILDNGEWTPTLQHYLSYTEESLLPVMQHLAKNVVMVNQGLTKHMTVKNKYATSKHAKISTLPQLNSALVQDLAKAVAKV
T1 sequence (P11802 whole entry, species assumed): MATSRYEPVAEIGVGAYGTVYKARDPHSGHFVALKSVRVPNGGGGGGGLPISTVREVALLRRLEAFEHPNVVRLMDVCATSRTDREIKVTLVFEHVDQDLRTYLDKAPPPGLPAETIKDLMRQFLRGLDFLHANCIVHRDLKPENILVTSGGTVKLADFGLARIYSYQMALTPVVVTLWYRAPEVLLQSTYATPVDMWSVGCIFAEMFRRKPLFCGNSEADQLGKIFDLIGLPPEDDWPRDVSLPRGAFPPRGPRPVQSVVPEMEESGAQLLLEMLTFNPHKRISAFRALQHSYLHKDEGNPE
T1 sequence (P24385 whole entry partner, species assumed): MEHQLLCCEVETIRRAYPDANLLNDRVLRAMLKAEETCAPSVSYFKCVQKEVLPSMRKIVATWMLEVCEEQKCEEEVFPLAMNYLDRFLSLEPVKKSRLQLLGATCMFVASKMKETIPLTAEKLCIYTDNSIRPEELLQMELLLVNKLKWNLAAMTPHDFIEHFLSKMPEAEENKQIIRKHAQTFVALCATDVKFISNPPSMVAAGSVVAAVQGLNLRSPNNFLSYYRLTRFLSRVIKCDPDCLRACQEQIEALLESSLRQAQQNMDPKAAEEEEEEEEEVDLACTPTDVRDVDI

Row | Structure (SMILES) | IC50 (cyclin D1/cdk 4 enzyme) [µM] | IC50 (cyclin E/CDK2 enzyme) [µM] | IC50 (cyclin B/CDK1 enzyme) [µM] | IC50 (BT474) [µM] | IC50 (HCT-116) [µM] | IC50 (LoVo) [µM] | IC50 (MCF-7) [µM] | melting point
1 | COc1cc(CN/C=C2\C(=O)NC(=O)c3ccc(-c4ccc(Oc5ccccc5)cc4)cc32)cc(O)c1OC [Example 100, (4Z)-6-(4-Phenoxyphenyl)-4-{[(3-hydroxy-4,5-dimethoxybenzyl)amino]methylene}isoquinoline-1,3(2H,4H)-dione] | 0.34 | > 50 | > 50 | 8.8 | 13.6 | 27.8 | 11 | 240 to 241 °C
2 | O=C1NC(=O)c2ccc(Br)cc2/C1=C/N1CCN(CCN2CCOCC2)CC1 [Example 105, (4Z)-6-Bromo-4-{[4-(2-morpholin-4-ylethyl)piperazin-1-yl]methylene}isoquinoline-1,3(2H,4H)-dione] | 24.3 | > 50 | > 50 | 36.9 | 42.6 | 42.9 | > 50 | 156 to 156.5 °C
3 | CN(C)CCN1CCN(/C=C2\C(=O)NC(=O)c3ccc(Br)cc32)CC1 [Example 106, (4Z)-6-Bromo-4-({4-[2-(dimethylamino)ethyl]piperazin-1-yl}methylene)isoquinoline-1,3(2H,4H)-dione] | 31.5 | > 50 | > 50 | 44.6 | > 50 | > 50 | > 50 | 166 to 167 °C
4 | O=C1NC(=O)c2ccc(/C=C/CCCCl)cc2/C1=C/Nc1ccc(CN2CCCCC2)cc1 [Example 112, (4Z)-6-[(1E)-5-Chloropent-1-enyl]-4-({[4-(piperidin-1-ylmethyl)phenyl]amino}methylene)isoquinoline-1,3(2H,4H)-dione] | 2.9 | > 50 | 3.8 | 2.3 | 0.98 | 1.9 | 3.3 | 268 to 269 °C
5 | COc1cc(CN/C=C2\C(=O)NC(=O)c3ccc(-c4ccc(Cl)cc4)cc32)cc(O)c1OC [Example 113, (4Z)-6-(4-Chlorophenyl)-4-{[(3-hydroxy-4,5-dimethoxybenzyl)amino]methylene}isoquinoline-1,3(2H,4H)-dione] | 0.02 | 37.2 | 47.6 | 11 | 5.8 | 2.9 | 6.2 | 240 to 241 °C
6 | Nc1ccc(CN/C=C2\C(=O)NC(=O)c3ccc(I)cc32)cc1O [Example 122, (4Z)-4-{[(4-Amino-3-hydroxybenzyl)amino]methylene}-6-iodoisoquinoline-1,3(2H,4H)-dione] | 0.04 | 1.6 | 16.1 | 5.2 | 7.5 | 9.9 | 17 | 250 to 251 °C
7 | O=C1NC(=O)c2ccc(-c3ccc(CN4CCCCC4)cc3)cc2C1=CNc1ccc(CN2CCCCC2)cc1 [Example 125, 6-(4-Piperidin-1-ylmethyl-phenyl)-4-[(4-piperidin-1-ylmethyl-phenylamino)-methylene]-4H-isoquinoline-1,3-dione] | 44.4 | > 50 | > 50 | 3.9 | 1.2 | 1.1 | 1.8 | 159 to 160 °C
8 | O=C1NC(=O)c2ccc(I)cc2/C1=C/Nc1ccc(CN2CCCC2)cc1 [Example 126] | 0.66 | 10 | > 50 | 0.9 | 3.4 | 5.1 | 2.3 | 186 to 187 °C
9 | O=C1NC(=O)c2ccc(-c3ccc(F)cc3)cc2/C1=C/Nc1ccc(CN2CCCC2)cc1 [Example 127, (4Z)-6-(4-Fluorophenyl)-4-({[4-(pyrrolidin-1-ylmethyl)phenyl]amino}methylene)isoquinoline-1,3(2H,4H)-dione] | 0.37 | > 50 | > 50 | 1.4 | 1.3 | 2.9 | 1.4 | 152 to 153 °C
10 | Nc1ccc(CN/C=C2\C(=O)NC(=O)c3ccc(-c4ccc(F)cc4)cc32)cc1O [Example 134, (4Z)-4-{[(4-Amino-3-hydroxybenzyl)amino]methylene}-6-(4 fluorophenyl)isoquinoline-1,3(2H,4H)-dione] | 0.04 | 13.2 | > 50 | 11 | 13 | 11 | 12 | 227 to 228 °C
11 | COc1ccc(CN/C=C2\C(=O)NC(=O)c3ccc(-c4cn[nH]c4)cc32)cc1O [Example 136, (4Z)-4-{[(3-Hydroxy-4-methoxybenzyl)amino]methylene}-6-(1H-pyrazol-4-yl)isoquinoline-1,3(2H,4H)-dione] | 0.005 | 0.43 | 4 | 16 | 25 | 36 | 48 | 252 to 253 °C
12 | CC(C)Oc1ccc(CN/C=C2\C(=O)NC(=O)c3ccc(Br)cc32)cc1O [Example 137, (4Z)-6-Bromo-4-{[(3-hydroxy-4-isopropoxybenzyl)amino]methylene}isoquinoline-1,3(2H,4H)-dione] | 0.69 | 33.9 | > 50 | 3.3 | 4.4 | 5.8 | 17 | 212 to 213 °C
13 | CC1CCCN1Cc1ccc(N/C=C2\C(=O)NC(=O)c3ccc(I)cc32)cc1 (stereo not drawn) [Example 138, (4Z)-6-Iodo-4-[({4-[(2-methylpyrrolidin-1-yl)methyl]phenyl}amino)methylene]isoquinoline-1,3(2H,4H)-dione] | 0.14 | > 50 | > 50 | 0.41 | 3.7 | 4.9 | 1.2 | 157 to 158 °C
14 | CC(=O)Nc1ccc(CN/C=C2\C(=O)NC(=O)c3ccc(Br)cc32)cc1OC(C)=O [Example 141, 2-(Acetylamino)-5-({[(Z)-(6-bromo-1,3-dioxo-2,3-dihydroisoquinolin-4(1H)-′ylidene)methyl]amino}methyl)phenyl acetate] | 0.19 | > 50 | > 50 | 0.56 | 0.84 | 1.3 | 16 | 264 to 265 °C
15 | Cl.O=C1NC(=O)c2ccc(Br)cc2C1=NNc1ccc(CN2CCCCC2)cc1 [Example 144, 6-Bromo-4-[(4-piperidin-1-ylmethyl-phenyl)-hydrazono]-4H-isoquinoline-1,3-dione Hydrochloride] | 1.9 | > 50 | > 50 | 3.2 | 1.5 | 3.2 | 3.2 | 298 to 299 °C (dec.)
